From patent US20070122483A1, “Fluocinolone acetonide drug substance polymorphic interconversion” (priority 2005, published 2007)

Tests used:
[1] = background statement; cited from earlier work
[2] = Polymorphic changes of FA after exposure to water (slurry), followed by 13C CP/MAS NMR; format: physicochemical; conditions: slurry 0.5 g FA in 10 ml water, stirred at room temperature for seven days, filtered and dried
Procedure: Slurries containing 0.5 g FA in 10 ml of water were covered and stirred at room temperature for seven days. To remove the water, the samples were filtered and dried overnight at room temperature.
Approximately 80-100 mg of sample was packed inside a 7 mm rotor. Magic-angle spinning (MAS) NMR spectra of fluocinolone acetonide (FA) were acquired using a Varian Unity Inova 400 operating at 399.8 and 100.5 MHz for ^1H and ^13C respectively. The spectra were acquired using cross-polarization (CP) with total sideband suppression and a spinning speed of 4 kHz. Additional acquisition and processing parameters are noted below:
All spectra were externally referenced to hexamethylbenzene (HMB) (^13C, aliphatic peak at 17.4 ppm).

CC1(C)O[C@@H]2C[C@H]3[C@@H]4C[C@H](F)C5=CC(=O)C=C[C@]5(C)[C@@]4(F)[C@@H](O)C[C@]3(C)[C@]2(C(=O)CO)O1 [Fluocinolone acetonide]
solubility in water [1]: practically insoluble
polymorphic changes after exposure to water for an extended time period [2]: all polymorphic forms interconvert to the same form
